These results are taken from patent publication US7074789B2, “Kinase inhibitors” (Amgen Inc., priority 1999, dated 2006).

SMILES strings stand for the structures. pIC50: −log10 of the molar value.

What all share (assay type): biochemical
Test [1] concerns the target T1, AKT (Homo sapiens, UniProt Q9Y243).
T1 construct: Kinases are expressed as either kinase domains or full length constructs; made in house
Put plainly: Kinase inhibition assay (33P transfer), AKT. The conditions noted are these: Table 2, class symbols A-E; read-out: AKT3-1. The essentials:
(§1)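 Measured by scintillation: radiolabelled phosphate added by tagged recombinant kinases to poly(Glu,Tyr) 4:1 or poly(Arg,Ser) 3:1 attached to microtiter wells, counted once free label was washed away with 0.5% phosphoric acid.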

In test [2] the target is T2, Itk (Homo sapiens, UniProt Q08881).
T2 construct: Kinases are expressed as either kinase domains or full length constructs; made in house
T2 sequence (Q08881 1-620): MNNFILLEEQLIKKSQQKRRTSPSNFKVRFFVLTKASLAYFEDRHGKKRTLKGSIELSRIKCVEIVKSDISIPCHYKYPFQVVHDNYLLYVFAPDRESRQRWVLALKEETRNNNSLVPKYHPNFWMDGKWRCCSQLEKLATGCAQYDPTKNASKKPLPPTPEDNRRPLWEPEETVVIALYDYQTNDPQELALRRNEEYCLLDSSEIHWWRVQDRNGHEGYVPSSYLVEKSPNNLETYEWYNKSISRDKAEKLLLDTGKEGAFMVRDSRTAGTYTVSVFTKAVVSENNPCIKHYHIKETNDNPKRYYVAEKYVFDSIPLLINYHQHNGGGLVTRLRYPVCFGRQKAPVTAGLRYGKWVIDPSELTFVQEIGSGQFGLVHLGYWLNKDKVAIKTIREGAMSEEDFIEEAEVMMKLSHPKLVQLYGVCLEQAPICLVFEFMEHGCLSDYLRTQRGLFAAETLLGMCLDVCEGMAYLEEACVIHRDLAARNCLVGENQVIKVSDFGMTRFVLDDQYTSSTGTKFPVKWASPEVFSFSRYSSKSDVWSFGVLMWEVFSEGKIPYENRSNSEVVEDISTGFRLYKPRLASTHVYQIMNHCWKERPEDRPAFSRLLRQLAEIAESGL
Briefly: Kinase inhibition assay (33P transfer), Itk. The conditions noted are these: Table 3, class symbols; read-out: Itk-1. The essentials:
(§2)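 Recombinant kinase domains or full-length GST- or His-tagged constructs, from E. coli or baculovirus/High Five cells, sometimes with regulatory polypeptides. Transfer of 33P from ATP to plate-bound poly(Glu,Tyr) 4:1 or poly(Arg,Ser) 3:1 counted by liquid scintillation after phosphoric acid wash; IC50 is the concentration halving incorporation.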

Test [3] deals with T3, IGFR-1 (Homo sapiens, UniProt P08069).
T3 construct: Kinases are expressed as either kinase domains or full length constructs; made in house
Put plainly: Kinase inhibition assay (33P transfer), IGFR-1. The note with it: Table 2, class symbols A-E.

In test [4] the target is T4, Zap-70 (Homo sapiens, UniProt P43403).
T4 construct: Kinases are expressed as either kinase domains or full length constructs; made in house
T4 sequence (P43403 1-619): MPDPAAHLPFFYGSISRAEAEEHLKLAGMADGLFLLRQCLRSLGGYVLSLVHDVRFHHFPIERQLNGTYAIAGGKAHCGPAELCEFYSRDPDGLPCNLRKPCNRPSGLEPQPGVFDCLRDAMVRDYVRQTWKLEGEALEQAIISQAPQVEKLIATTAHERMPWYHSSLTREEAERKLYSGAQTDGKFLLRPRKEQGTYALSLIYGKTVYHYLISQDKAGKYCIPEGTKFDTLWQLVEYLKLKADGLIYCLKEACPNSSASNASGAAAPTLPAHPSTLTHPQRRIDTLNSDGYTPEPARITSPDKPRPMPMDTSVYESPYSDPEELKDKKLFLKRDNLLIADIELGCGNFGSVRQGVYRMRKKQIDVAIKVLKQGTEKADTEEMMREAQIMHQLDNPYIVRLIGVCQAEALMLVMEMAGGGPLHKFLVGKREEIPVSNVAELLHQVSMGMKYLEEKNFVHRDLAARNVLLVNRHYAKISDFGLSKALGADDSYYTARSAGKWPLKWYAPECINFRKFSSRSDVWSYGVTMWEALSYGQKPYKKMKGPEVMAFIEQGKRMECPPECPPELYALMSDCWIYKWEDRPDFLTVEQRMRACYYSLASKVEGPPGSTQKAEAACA
Put plainly: Kinase inhibition assay (33P transfer), Zap-70. The conditions noted are these: Table 3, class symbols; read-out: Zap-1. In outline: as §1

Test [5] addresses T5, Kdr (Homo sapiens, UniProt P35968).
T5 construct: Kinases are expressed as either kinase domains or full length constructs; made in house
Briefly: Kinase inhibition assay (33P transfer), Kdr. The note with it: Table 3, class symbols; read-out: KDR-1. In outline:
as §1

Test [6] has as its target T6, c-Met (Homo sapiens, UniProt P08581).
T6 construct: Kinases are expressed as either kinase domains or full length constructs; made in house
Briefly: Kinase inhibition assay (33P transfer), c-Met. The note with it: Table 2, class symbols A-E; read-out: Met-1. The essentials:
as §2

In test [7] the target is T7, ErbB2 (Homo sapiens, UniProt P04626).
T7 construct: Kinases are expressed as either kinase domains or full length constructs; made in house
Put plainly: Kinase inhibition assay (33P transfer), ErbB2. The conditions noted are these: read-out: ErbB2-2. In outline:
as §2

The target in test [8] is T8, Lck (Homo sapiens, UniProt P06239).
T8 construct: Kinases are expressed as either kinase domains or full length constructs; made in house
Put plainly: Kinase inhibition assay (33P transfer), Lck. The conditions noted are these: Table 3, class symbols; read-out: Lck-1. The essentials: as §1

In test [9] the target is T9, EGFR (Homo sapiens, UniProt P00533).
T9 construct: Kinases are expressed as either kinase domains or full length constructs; made in house
Put plainly: Kinase inhibition assay (33P transfer), EGFR. The conditions noted are these: Table 2, class symbols A-E; read-out: EGFR-1. In outline:
as §2

The target of test [10] is T10, PDGFRB (Homo sapiens, UniProt P09619).
T10 construct: Kinases are expressed as either kinase domains or full length constructs; made in house
Put plainly: Kinase inhibition assay (33P transfer), PDGFRB. The note with it: read-out: PDGFRB-1.

T3 sequence (P08069 31-1367): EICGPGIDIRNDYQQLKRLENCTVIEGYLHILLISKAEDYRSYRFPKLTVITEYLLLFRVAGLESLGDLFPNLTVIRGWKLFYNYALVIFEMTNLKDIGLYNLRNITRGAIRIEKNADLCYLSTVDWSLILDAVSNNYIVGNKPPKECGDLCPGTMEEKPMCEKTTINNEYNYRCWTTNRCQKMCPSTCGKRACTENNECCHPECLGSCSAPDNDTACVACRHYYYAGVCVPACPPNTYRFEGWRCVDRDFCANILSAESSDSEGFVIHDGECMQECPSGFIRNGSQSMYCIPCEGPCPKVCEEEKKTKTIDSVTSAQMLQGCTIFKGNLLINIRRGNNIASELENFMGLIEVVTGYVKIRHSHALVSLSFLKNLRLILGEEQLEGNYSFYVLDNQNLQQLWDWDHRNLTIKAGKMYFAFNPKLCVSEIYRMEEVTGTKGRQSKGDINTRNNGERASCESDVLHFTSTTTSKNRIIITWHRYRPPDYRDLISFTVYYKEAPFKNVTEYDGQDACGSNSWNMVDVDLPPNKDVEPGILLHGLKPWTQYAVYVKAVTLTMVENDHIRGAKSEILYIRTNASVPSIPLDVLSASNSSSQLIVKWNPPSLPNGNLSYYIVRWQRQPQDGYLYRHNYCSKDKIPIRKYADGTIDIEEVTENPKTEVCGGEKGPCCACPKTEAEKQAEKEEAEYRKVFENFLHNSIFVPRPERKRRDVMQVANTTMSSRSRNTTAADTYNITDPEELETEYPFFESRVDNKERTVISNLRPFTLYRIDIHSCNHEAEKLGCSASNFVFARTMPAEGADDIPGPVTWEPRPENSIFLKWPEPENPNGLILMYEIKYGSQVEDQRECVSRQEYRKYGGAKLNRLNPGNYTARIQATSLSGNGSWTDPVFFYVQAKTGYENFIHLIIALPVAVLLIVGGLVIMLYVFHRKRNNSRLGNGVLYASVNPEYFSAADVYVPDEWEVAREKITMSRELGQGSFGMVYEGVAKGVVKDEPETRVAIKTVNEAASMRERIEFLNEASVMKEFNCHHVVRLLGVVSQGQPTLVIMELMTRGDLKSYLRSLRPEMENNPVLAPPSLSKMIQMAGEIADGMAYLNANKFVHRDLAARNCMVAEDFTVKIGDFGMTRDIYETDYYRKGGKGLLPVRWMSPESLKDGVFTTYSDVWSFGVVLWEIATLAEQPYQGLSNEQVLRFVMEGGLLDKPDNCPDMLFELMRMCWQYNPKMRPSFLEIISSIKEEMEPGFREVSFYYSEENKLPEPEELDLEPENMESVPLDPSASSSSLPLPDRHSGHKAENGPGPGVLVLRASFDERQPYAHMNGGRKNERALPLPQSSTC
T9 sequence (P00533 25-1210, species assumed): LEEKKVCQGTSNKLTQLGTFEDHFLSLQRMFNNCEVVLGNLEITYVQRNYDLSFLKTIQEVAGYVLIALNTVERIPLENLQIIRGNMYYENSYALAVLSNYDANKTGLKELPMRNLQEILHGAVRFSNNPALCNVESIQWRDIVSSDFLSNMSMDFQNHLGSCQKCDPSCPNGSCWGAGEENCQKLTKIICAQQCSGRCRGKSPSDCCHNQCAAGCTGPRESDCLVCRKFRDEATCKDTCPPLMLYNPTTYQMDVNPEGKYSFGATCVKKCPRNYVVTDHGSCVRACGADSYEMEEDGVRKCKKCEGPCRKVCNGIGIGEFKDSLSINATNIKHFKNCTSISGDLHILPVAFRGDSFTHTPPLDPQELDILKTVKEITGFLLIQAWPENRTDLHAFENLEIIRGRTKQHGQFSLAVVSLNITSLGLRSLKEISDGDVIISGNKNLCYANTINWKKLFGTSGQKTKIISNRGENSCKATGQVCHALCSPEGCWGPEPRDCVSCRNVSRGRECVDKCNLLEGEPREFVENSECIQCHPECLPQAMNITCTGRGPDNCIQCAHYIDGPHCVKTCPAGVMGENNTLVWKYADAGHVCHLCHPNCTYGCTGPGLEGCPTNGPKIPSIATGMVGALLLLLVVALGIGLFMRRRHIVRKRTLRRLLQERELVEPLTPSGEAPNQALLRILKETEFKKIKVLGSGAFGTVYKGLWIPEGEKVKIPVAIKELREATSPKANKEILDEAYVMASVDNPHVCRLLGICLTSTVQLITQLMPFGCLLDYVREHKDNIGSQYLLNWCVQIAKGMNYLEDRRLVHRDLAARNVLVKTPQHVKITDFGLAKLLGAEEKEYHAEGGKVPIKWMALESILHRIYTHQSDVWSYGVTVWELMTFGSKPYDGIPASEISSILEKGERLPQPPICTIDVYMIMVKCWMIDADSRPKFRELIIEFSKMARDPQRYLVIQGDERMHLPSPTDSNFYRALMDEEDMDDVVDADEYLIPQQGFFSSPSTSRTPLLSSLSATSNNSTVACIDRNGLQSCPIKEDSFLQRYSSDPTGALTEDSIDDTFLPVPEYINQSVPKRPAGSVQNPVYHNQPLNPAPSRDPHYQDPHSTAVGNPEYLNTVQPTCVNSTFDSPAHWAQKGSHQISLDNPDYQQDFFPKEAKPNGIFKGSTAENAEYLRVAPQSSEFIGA
T8 sequence (P06239 whole entry, species assumed, the tested form may be a part): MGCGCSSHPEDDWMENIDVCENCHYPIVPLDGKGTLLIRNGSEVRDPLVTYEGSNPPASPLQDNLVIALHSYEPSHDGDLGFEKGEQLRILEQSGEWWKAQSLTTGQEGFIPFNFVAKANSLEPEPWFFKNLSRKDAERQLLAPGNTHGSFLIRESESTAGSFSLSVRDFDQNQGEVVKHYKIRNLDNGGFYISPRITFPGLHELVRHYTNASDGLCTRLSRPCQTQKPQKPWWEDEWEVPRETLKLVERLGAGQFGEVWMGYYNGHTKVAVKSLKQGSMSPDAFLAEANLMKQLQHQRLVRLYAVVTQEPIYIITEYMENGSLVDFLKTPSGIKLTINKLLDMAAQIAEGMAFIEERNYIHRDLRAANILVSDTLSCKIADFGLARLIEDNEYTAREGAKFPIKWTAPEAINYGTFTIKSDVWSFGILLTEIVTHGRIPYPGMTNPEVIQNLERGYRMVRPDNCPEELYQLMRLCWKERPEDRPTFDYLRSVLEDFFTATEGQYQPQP
T1 sequence (Q9Y243 whole entry, the tested form may be a part): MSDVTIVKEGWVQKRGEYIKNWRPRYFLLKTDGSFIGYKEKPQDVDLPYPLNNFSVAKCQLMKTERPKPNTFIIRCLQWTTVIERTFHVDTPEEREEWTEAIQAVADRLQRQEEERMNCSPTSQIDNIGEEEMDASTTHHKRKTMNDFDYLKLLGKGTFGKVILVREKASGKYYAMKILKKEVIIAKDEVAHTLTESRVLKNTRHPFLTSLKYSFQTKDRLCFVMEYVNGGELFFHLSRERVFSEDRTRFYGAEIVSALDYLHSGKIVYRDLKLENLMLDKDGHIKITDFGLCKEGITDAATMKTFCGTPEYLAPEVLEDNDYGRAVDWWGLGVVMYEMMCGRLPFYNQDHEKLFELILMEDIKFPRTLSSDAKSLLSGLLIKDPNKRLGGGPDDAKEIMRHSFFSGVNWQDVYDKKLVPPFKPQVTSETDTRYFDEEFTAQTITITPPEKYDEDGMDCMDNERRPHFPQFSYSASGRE
T7 sequence (P04626 23-1255, species assumed): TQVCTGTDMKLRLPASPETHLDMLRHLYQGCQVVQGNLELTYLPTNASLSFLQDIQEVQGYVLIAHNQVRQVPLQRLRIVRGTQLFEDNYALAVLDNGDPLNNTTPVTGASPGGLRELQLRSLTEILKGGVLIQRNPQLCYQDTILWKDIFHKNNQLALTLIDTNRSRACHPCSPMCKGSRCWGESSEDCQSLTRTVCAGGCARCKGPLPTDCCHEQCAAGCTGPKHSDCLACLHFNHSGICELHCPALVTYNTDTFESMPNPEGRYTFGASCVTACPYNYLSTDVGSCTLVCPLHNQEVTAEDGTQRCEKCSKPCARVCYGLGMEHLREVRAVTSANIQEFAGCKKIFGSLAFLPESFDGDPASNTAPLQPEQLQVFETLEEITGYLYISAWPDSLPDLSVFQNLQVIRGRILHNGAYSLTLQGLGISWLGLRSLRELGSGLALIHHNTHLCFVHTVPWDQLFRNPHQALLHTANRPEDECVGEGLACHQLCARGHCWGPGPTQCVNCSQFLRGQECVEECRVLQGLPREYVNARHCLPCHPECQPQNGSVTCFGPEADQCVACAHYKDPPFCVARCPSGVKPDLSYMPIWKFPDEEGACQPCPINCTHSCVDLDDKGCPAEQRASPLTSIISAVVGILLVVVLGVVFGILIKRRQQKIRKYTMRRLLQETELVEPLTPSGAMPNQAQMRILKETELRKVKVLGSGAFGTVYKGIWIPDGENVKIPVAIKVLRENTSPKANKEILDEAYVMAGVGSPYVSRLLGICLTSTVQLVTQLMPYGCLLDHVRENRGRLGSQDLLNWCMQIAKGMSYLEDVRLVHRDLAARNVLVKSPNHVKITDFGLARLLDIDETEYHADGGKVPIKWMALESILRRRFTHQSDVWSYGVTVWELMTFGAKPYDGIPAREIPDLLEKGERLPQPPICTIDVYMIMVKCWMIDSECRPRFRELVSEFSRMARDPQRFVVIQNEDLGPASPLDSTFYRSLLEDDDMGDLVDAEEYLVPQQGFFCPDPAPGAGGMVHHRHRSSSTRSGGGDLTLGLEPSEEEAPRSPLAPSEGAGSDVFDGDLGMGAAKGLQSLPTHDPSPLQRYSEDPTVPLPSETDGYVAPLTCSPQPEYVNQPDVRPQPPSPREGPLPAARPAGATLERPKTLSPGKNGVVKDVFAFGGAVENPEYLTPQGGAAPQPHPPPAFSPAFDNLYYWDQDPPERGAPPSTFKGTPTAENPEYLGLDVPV

Regarding `COCCNc1ncnc(Nc2cc(-c3ccc(C(=O)OC)cc3)n[nH]2)n1` [Compound 816], the pIC50 was under 4.91 in [1]; 5.02 to 5.19 in test [2]; 4.91 to 5.02 in test [3]; under 4.91 in test [4]; under 4.91 in [5]; under 4.91 in test [6]. The pIC50 was 5.02 to 5.19 in test [7], under 4.91 in test [8], under 4.91 in [9] and over 5.97 in test [10].
`Clc1cc(Nc2ncnc(Nc3ccc4c(cnn4Cc4ccccc4)c3)n2)cc(Cl)c1Cl` [Compound 872]: the pIC50 in test [1] was 5.32 to 6.09; in [2], 5.32 to 6.09; in test [3], 5.32 to 6.09; in test [4], under 5.04; in test [5], 5.32 to 6.09; in test [6] it was 5.32 to 6.09. Moreover, the pIC50 in [7] is 5.32 to 6.09; in [8] it was under 5.04; in test [9], 5.32 to 6.09; in test [10], 5.32 to 6.09.
Take `COc1ccc(Nc2ncnc(N(C)c3ccc(F)cc3F)n2)cc1OC` [Compound 801]: the pIC50 in test [1] is under 4.92; in test [2], under 4.92; in test [3], under 4.92; in [4] it was under 4.92; in test [5] it was 5.03 to 5.19; in test [6], 5.19 to 5.97. In addition, the pIC50 in test [7] was 4.92 to 5.03; in [8] it was 5.19 to 5.97; in test [9], over 5.97; in test [10], 5.19 to 5.97.
For the compound `c1cc(Nc2ncnc(Nc3cc(-c4ccco4)[nH]n3)n2)cc(-c2cnco2)c1` [Compound 824], the pIC50 in test [1] was over 5.98; in test [2], over 5.98; in test [3], over 5.98; in test [4], 5.21 to 5.98; in test [5] it was over 5.98; in test [6] it was over 5.98. Besides, the pIC50 in [7] was over 5.98; in test [8], 5.21 to 5.98; in [9] it was over 5.98; in test [10], over 5.98.
For `c1ccc(Nc2ncccc2-c2ncnc(Nc3cccc(Cn4ccnn4)c3)n2)cc1` [Compound 1095], the pIC50 in test [1] was under 4.97; in [2], under 4.97; in [3] it was under 4.97; in test [4], under 4.97; in test [5], over 6.02; in test [6] it was under 4.97. For the same compound, the pIC50 is under 4.97 in test [7], under 4.97 in [8], under 4.97 in test [9] and over 6.02 in test [10].
With `C=CCN(c1cccc(Cl)c1)c1ncnc(Nc2cc(OC)cc(OC)c2)n1` [Compound 722], the pIC50 in test [1] was under 4.95; in test [2] it was over 6.00; in test [3], 4.95 to 5.06; in test [4], under 4.95; in test [5], over 6.00; in [6], 5.22 to 6.00. Besides, the pIC50 in test [7] was 5.22 to 6.00; in [8], 5.22 to 6.00; in [9], over 6.00; in test [10], 5.22 to 6.00.
Turning to `COc1cc(Nc2ncnc(-c3cccnc3Nc3ccc(Cl)cc3C)n2)cc(OC)c1OC` [Compound 834], the pIC50 was under 5.03 in test [1]; under 5.03 in test [2]; under 5.03 in [3]; under 5.03 in test [4]; 5.30 to 6.08 in test [5]; under 5.03 in test [6]. The pIC50 in [7] was under 5.03; in test [8], under 5.03; in test [9], under 5.03; in [10], over 6.08.
As for `COC(=O)c1ccc(-c2cc(Nc3ncnc(Nc4ccc(N5CCOCC5)cc4)n3)[nH]n2)cc1` [Compound 807], the pIC50 in [1] is under 5.02; in test [2] it was 5.13 to 5.29; in test [3] it was 5.29 to 6.07; in test [4], under 5.02; in [5], under 5.02; in [6], over 6.07. Also, the pIC50 is 5.29 to 6.07 in test [7], under 5.02 in test [8], 5.02 to 5.13 in test [9] and under 5.02 in test [10].
Regarding `COc1ccc(CNc2nc3ccccc3n2-c2ncnc(Nc3cccc(C(=O)O)c3)n2)cc1` [Compound 1070], the pIC50 in test [1] is 5.13 to 5.29; in test [2], under 5.02; in test [3], under 5.02; in [4], under 5.02; in test [5], 5.29 to 6.07; in test [6] it was under 5.02. In addition, the pIC50 was under 5.02 in test [7], under 5.02 in [8], under 5.02 in test [9] and 5.29 to 6.07 in test [10].
With `COc1ccc(Nc2ncnc(Nc3cc(-c4ccc(C)cc4)n[nH]3)n2)c(C)c1` [Compound 1126], the pIC50 was under 4.93 in [1]; 5.21 to 5.99 in test [2]; over 5.99 in test [3]; under 4.93 in [4]; 5.04 to 5.21 in [5]; 5.21 to 5.99 in test [6]. Besides, the pIC50 in [7] is 5.21 to 5.99; in test [8], over 5.99; in test [9], 5.21 to 5.99; in test [10], 5.21 to 5.99.
Turning to `CCN(CC)CCN(C)c1ncnc(Nc2ccc(OC)c(OC)c2)n1` [Compound 870], the pIC50 in test [1], in test [2], in test [3], in test [4], in [5] and in test [6] was under 4.90 throughout. The pIC50 in [7], in test [8], in [9] and in test [10] was under 4.90 each time.
As to `COc1cc(Nc2ncnc(N3CCCc4cc(Cl)ccc43)n2)cc(OC)c1OC` [Compound 639], the pIC50 was under 4.98 in test [1]; under 4.98 in test [2]; under 4.98 in test [3]; under 4.98 in test [4]; over 6.03 in test [5]; over 6.03 in [6]. Moreover, the pIC50 in [7] was 5.09 to 5.25; in test [8], 5.25 to 6.03; in test [9] it was over 6.03; in [10], over 6.03.
For `COc1cc(C)c(Nc2ncnc(Nc3cc(-c4ccc(Cl)cc4)n[nH]3)n2)cc1OC` [Compound 1128], the pIC50 in test [1] was under 4.99; in test [2], 5.26 to 6.04; in test [3], over 6.04; in test [4] it was under 4.99; in [5], 5.26 to 6.04; in test [6], 5.26 to 6.04. For the same compound, the pIC50 is 5.26 to 6.04 in [7], 5.26 to 6.04 in test [8], 4.99 to 5.10 in test [9] and under 4.99 in test [10].
Regarding `Cc1ccc(Cl)cc1Nc1ncnc(Nc2cc(Cl)ccc2C)n1` [Compound 638], the pIC50 in test [1] was under 4.90; in test [2] it was under 4.90; in test [3], 4.90 to 5.01; in test [4] it was under 4.90; in test [5], 4.90 to 5.01; in test [6] it was under 4.90. Besides, the pIC50 in test [7] was 4.90 to 5.01; in test [8], under 4.90; in [9], over 5.95; in test [10], 5.18 to 5.95.
